From publication PMC5209882, “The Coptotermes gestroi aldo–keto reductase: a multipurpose enzyme for biorefinery applications” (Biotechnology for Biofuels, 2017)

How the values were obtained:
[1] = biological target: T1, CgAKR-1 (Coptotermes gestroi, UniProt A0A140CVV2); assay: NADPH oxidation at […] nm, varied NADPH; format: biochemical; conditions: 5 mM 2-nitrobenzaldehyde; 50 mM sodium phosphate pH 7.0 (standard assay), 30 °C; Kd apparently from kinetics
T1 construct: full-length ORF of 334 residues, N-terminal 6xHis tag (pET-28a, NheI/BamHI), E. coli ArcticExpress (DE3); Ni and size exclusion purified
T1 sequence (A0A140CVV2 1-334): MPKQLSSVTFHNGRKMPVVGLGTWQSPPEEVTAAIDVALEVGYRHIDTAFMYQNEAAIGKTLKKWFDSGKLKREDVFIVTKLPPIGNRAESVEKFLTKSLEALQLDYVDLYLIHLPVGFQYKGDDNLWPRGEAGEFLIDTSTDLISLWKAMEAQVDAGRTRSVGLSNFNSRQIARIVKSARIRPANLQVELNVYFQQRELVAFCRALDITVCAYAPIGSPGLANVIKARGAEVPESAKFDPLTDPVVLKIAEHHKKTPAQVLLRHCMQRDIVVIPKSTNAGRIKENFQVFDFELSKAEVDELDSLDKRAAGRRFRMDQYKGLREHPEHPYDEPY

[2] = biological target: T1, CgAKR-1; assay: X-ray crystal structure; conditions: cofactor-binding site; complex described in text, ligand state not stated explicitly
[3] = substrate: O=Cc1ccccc1[N+](=O)[O-]; assay: purified protein; format: biochemical, Coptotermes gestroi; conditions: 0.2 mM NADPH, 50 mM sodium phosphate pH 7.0 (standard assay), 30 °C

Molecule: NC(=O)C1=CN([C@@H]2O[C@H](COP(=O)(O)OP(=O)(O)OC[C@H]3O[C@@H](n4cnc5c(N)ncnc54)[C@H](OP(=O)(O)O)[C@@H]3O)[C@@H](O)[C@H]2O)C=CC1 [NADPH]
- Kd [1]: 60 µM

Molecule: NC(=O)c1ccc[n+]([C@@H]2O[C@H](COP(=O)(O)OP(=O)(O)OC[C@H]3O[C@@H](n4cnc5c(N)ncnc54)[C@H](OP(=O)(O)O)[C@@H]3O)[C@@H](O)[C@H]2O)c1 [NADP]
- X-ray crystal structure [2]: the pocket was mainly delimited by the cofactor (NADP) and nine amino acids

B1: CgAKR-1 (Coptotermes gestroi) (protein)
chain: T1 sequence (A0A140CVV2 1-334)
notes: full-length ORF of 334 residues, N-terminal 6xHis tag (pET-28a, NheI/BamHI), E. coli ArcticExpress (DE3); Ni and size exclusion purified
- Km [3]: 150 µM
- kcat [3]: 7.5 s⁻¹
